Measured values reported in patent publication US12084434B2 (Scorpion Therapeutics, Inc., priority 2021, dated 2024).
Where two headings read alike, the source gives them in different places.

Assays:
[1] = tested on: T47D pAKT (S473), PI3Kα H1047R mutation present; assay: HTRF pAKT-T47D;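 further: assay medium was RPMI with 10% FBS and 0.2 units/ml bovine insulin, without phenol red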
Description: Homogenous Time-Resolved Fluorescence (HTRF)—pAKT-T47D
Compounds were assayed using homogeneous time-resolved fluorescence (HTRF).
Gibco RPMI 1640 Medium, no phenol red; Gibco RPMI 1640 Medium; Gibco Trypsin-EDTA (0.5%), no phenol red; Gibco DPBS; Trypan blue solution 0.4% (Corning); Avantor Seradigm Premium Grade Fetal Bovine Serum (FBS); Greiner 784080-384 well TC treated white plates; pAKT (Ser473) HTRF; Gibco Insulin, human recombinant, zinc solution; Gibco Recovery Cell Culture Freezing Medium; Countess II FL Automated Cell Counter (ThermoFisher); Countess II Slides (ThermoFisher); Microscope; and PHERAstar FSX Microplate Reader (BMG LABTECH, Inc.).
The scinamic cell line ID was T47D.1, the HTRF detection was pAKT (S473), a PI3Kα H1047R mutation was present, the seeding density was 5000, the timepoint was 1 hour, and the medium used was RPMI+10% FBS (no phenol red)+0.2 units/ml bovine insulin.
• The cell density was not permitted to reach 100% confluence. The cells were split 1:5 when they reached ˜80% confluence. • Cells were split twice a week (Mon and Fri). • Cells over passage 18 were not used (˜2 months of maintenance). • Antibiotics were not used for tissue culture maintenance or assays. […] Protocol Day1
The procedure was as follows: • 1. Prepared ARP: • a. Stamped 12.5 nL from 10 μmM source plate to destination plate using Echo. Sealed plate immediately and froze at −20° C. if it was not used on the same day. • b. If a frozen ARP was used, the plate was thawed and spun at 1000 rpm×1 min. • 2. Preparation of cells (adherent): • a. Aspirated media from cells. Washed cells with sterile 1XPBS. Aspirated PBS and added appropriate amount of Trypsin. • b. Once cells were fully trypsinized, added appropriate media to resuspend cells. Transferred cells to a 15 mL or 50 mL conical tube. • c. Counted cells on the Countess II Cell Counter. • 3. Plating of cells: • a. Prepared cells at appropriate plating density. Dispensed 12 μL of diluted cells per well of a Greiner 784080-384 well TC treated white plate using a Multidrop Combi to columns 1-23. Added 12 uL of appropriate phenol free media only to column 24. • b. Placed plates in 37° C. tissue culture incubator for appropriate treatment time (refer to “Assay” table). • 4. Prepared HTRF Lysis Buffer • a. Calculate the amount of HTRF lysis buffer master mix needed to perform the desired experiments plus any extra dead volume required for dispensing (4 μL required per well). […] Add 4 uL Lysis buffer master mix to all wells with sample or DMSO. Centrifuge the plates for 1 minute at 1000 rpm. • c. Incubate at room temperature for 30 minutes. • 5. Prepared HTRF Antibody • a.

[2] = biological target: T1, PI3Kα H1047R protein (p110-α H1047R complexed with truncated p85-α) (Homo sapiens, UniProt P42336, H1047R); assay: Surface Plasmon Resonance (SPR) binding, wortmannin-blocked protein; conditions: Biacore 8K, ATP site blocked with 1 μM wortmannin, 25° C.
T1 construct: The protein contained a full-length p110-α subunit harboring the H1047R mutation
T1 sequence (P42336 whole entry H1047R, the tested form may be a part): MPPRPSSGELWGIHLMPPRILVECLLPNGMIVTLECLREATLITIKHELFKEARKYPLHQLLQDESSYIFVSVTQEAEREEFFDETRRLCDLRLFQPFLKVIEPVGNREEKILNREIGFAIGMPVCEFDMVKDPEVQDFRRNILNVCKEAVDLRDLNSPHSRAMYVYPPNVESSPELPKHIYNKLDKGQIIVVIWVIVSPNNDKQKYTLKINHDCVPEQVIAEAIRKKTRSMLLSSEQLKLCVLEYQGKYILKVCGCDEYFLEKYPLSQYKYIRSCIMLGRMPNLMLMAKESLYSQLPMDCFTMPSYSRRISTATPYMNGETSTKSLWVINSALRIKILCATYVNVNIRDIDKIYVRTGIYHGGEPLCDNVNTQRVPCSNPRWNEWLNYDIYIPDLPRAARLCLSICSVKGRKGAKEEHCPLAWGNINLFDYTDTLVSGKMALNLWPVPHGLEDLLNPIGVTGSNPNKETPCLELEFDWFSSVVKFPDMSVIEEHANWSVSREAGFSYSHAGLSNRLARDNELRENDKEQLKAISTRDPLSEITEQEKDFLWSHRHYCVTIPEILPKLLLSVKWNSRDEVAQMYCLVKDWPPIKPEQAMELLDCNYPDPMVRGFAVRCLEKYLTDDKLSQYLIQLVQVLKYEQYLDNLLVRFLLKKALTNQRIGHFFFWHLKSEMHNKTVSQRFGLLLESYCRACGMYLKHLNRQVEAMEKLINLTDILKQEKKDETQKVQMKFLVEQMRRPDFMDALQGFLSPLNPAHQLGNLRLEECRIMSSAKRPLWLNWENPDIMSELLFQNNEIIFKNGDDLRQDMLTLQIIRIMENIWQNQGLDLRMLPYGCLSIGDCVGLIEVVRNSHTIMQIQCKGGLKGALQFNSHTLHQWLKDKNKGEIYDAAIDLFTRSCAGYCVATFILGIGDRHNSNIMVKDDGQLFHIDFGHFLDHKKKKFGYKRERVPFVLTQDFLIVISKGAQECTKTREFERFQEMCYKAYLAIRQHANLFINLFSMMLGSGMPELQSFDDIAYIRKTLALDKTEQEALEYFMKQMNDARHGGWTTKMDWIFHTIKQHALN
T1 sequence (P27986 322-694 partner limits assumed): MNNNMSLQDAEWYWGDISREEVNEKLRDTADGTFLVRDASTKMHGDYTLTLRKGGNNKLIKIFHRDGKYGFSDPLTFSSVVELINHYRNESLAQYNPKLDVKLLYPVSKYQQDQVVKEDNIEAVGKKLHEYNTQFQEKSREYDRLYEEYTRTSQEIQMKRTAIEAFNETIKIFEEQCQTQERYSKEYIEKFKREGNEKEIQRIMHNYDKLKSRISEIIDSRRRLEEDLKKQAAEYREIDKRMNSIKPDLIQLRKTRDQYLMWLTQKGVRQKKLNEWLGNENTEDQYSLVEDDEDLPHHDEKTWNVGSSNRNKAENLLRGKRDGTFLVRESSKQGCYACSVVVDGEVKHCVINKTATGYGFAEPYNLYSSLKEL
Description: Surface Plasmon Resonance (SPR)
SPR experiments were performed on a Biacore 8K instrument. A biotinylated recombinant PI3Kα H1047R protein was used in this study. The protein contained a full-length p110-α subunit harboring the H1047R mutation with an N-terminal AviTag, complexed with a truncated p85-α subunit (amino acid residues 322-694). The protein was first incubated with 1 μM wortmannin for 30 min at RT to covalently block the ATP binding site, then immobilized onto a streptavidin sensor chip by flowing the protein through the sensor chip at typically 20 μg/mL concentration and 2 μL/min flow rate for 1200 seconds. Compound binding affinities were measured in the multi-cycle kinetics mode, at 90 μL/min flow rate with 90 seconds association time and 240 seconds dissociation time. The running buffer contained 50 mM Tris, pH 7.5, 150 mM NaCl, 0.01% Brij35, 1 mM DTT, 1 mM MgCl2, 0.05% Tween-20 and 2% DMSO. Temperature was maintained at 25° C. during experiments.

[3] = Homo sapiens, T47D, 1 h, read-out: T47D pAKT IC50 (nM), T47D.1 cells, pAKT (S473) HTRF, 1 hour

IC50 [1, 3] [nM] | Kd [2] [nM] | SMILES | IC50 ([1]; read-out: T47D pAKT IC50, T47D.1 cells, pAKT (S473) HTRF, 1 hour) [nM]
> 5000 | ≥ 500 | COC(=O)N1CCC(NC(=O)NC(c2oc3ccc(F)cc3c2C)C(C)C)CC1 (single isomer, unassigned) [Compound 36] | –
< 1000 | < 100 | Cc1c(C(NC(=O)Nc2cnc(N3CCC3)nc2)C(F)(F)F)oc2ccc(F)cc12 (single isomer, unassigned) [Compound 69, 1-(2-(azetidin-1-yl)pyrimidin-5-yl)-3-(2,2,2-trifluoro-1-(5-fluoro-3-methylbenzofuran-2-yl)ethyl)urea] | –
1000 to 5000 | 250 to 500 | Cc1c([C@@H](NC(=O)Nc2cccnc2)C(C)C)oc2ccc(F)cc12 [Compound 1, (S)-1-(1-(5-fluoro-3-methylbenzofuran-2-yl)-2-methylpropyl)-3-(pyridin-3-yl)urea] | –
> 5000 | ≥ 500 | Cc1c([C@H](C)NC(=O)Nc2cccc(C(N)=O)c2)oc2ccc(F)cc12 [Compound 3, (S)-3-(3-(1-(5-fluoro-3-methylbenzofuran-2-yl)ethyl)ureido) benzamide] | –
> 5000 | ≥ 500 | CCS(=O)(=O)c1ccc(NC(=O)N[C@H](C)c2oc3ccc(F)cc3c2C)cc1 [Compound 13, (R)-1-(4-(ethylsulfonyl)phenyl)-3-(1-(5-fluoro-3-methylbenzofuran-2-yl)ethyl)urea] | –
1000 to 5000 | < 100 | Cc1c([C@@H](NC(=O)Nc2cccc(C(=O)N(C)C)c2)C(C)C)oc2ccc(F)cc12 [Compound 22, (S)-3-(3-(1-(5-fluoro-3-methylbenzofuran-2-yl)-2-methylpropyl)ureido)-N,N-dimethylbenzamide] | –
1000 to 5000 | 250 to 500 | CNC(=O)c1cccc(NC(=O)N[C@H](c2oc3ccc(F)cc3c2C)C(C)C)c1 [Compound 23, (S)-3-(3-(1-(5-fluoro-3-methylbenzofuran-2-yl)-2-methylpropyl)ureido)-N-methylbenzamide] | –
< 1000 | < 100 | Cc1c([C@@H](NC(=O)Nc2cncc(C(N)=O)c2)C(C)C)oc2ccc(F)cc12 [Compound 24, (S)-5-(3-(1-(5-fluoro-3-methylbenzofuran-2-yl)-2-methylpropyl)ureido) nicotinamide] | –
< 1000 | < 100 | Cc1c([C@@H](NC(=O)Nc2cncc(S(C)(=O)=O)c2)C(C)C)oc2ccc(F)cc12 [Compound 27, (S)-1-(1-(5-fluoro-3-methylbenzofuran-2-yl)-2-methylpropyl)-3-(5-(methylsulfonyl)pyridin-3-yl)urea] | –
> 5000 | 250 to 500 | Cc1c([C@@H](NC(=O)N[C@H]2CCC[C@H](C(N)=O)C2)C(C)C)oc2ccc(F)cc12 [Compound 31, (1S,3S)-3-(3-((S)-1-(5-fluoro-3-methylbenzofuran-2-yl)-2-methylpropyl)ureido) cyclohexane-1-carboxamide] | –
< 1000 | < 100 | Cc1c([C@@H](NC(=O)Nc2ccc3c(c2)CNC3=O)C(C)C)oc2ccc(F)cc12 [Compound 33, (S)-1-(1-(5-fluoro-3-methylbenzofuran-2-yl)-2-methylpropyl)-3-(1-oxoisoindolin-5-yl)urea] | –
1000 to 5000 | < 100 | Cc1c([C@@H](NC(=O)Nc2ccc3c(c2)C(=O)NC3)C(C)C)oc2ccc(F)cc12 [Compound 34, (S)-1-(1-(5-fluoro-3-methylbenzofuran-2-yl)-2-methylpropyl)-3-(3-oxoisoindolin-5-yl)urea] | –
1000 to 5000 | 250 to 500 | Cc1c([C@@H](NC(=O)Nc2cncc(C#N)c2)C(C)C)oc2ccc(F)cc12 [Compound 35, (S)-1-(5-cyanopyridin-3-yl)-3-(1-(5-fluoro-3-methylbenzofuran-2-yl)-2-methylpropyl)urea] | –
> 5000 | ≥ 500 | Cc1c([C@@H](NC(=O)Nc2cccnc2)C2CC2)oc2ccc(F)cc12 [Compound 37, (S)-1-(cyclopropyl(5-fluoro-3-methylbenzofuran-2-yl)methyl)-3-(pyridin-3-yl)urea] | –
< 1000 | 100 to 250 | Cc1c([C@@H](NC(=O)Nc2ccc(N)nc2)C(C)C)oc2ccc(F)cc12 [Compound 38, (S)-1-(6-aminopyridin-3-yl)-3-(1-(5-fluoro-3-methylbenzofuran-2-yl)-2-methylpropyl)urea] | –
< 1000 | < 100 | Cc1c([C@@H](NC(=O)Nc2cnc(N)nc2)C(C)C)oc2ccc(F)cc12 [Compound 39, (S)-1-(2-aminopyrimidin-5-yl)-3-(1-(5-fluoro-3-methylbenzofuran-2-yl)-2-methylpropyl)urea] | –
1000 to 5000 | 250 to 500 | Cc1c([C@@H](NC(=O)Nc2ccnc(C(N)=O)c2)C(C)C)oc2ccc(F)cc12 [Compound 40, (S)-4-(3-(1-(5-fluoro-3-methylbenzofuran-2-yl)-2-methylpropyl)ureido)picolinamide] | –
< 1000 | < 100 | Cc1c([C@@H](NC(=O)Nc2ccc(C(N)=O)nc2)C(C)C)oc2ccc(F)cc12 [Compound 41, (S)-5-(3-(1-(5-fluoro-3-methylbenzofuran-2-yl)-2-methylpropyl)ureido)picolinamide] | –
1000 to 5000 | 100 to 250 | Cc1c([C@@H](NC(=O)N[C@@H]2CCCS(=O)(=O)C2)C(C)C)oc2ccc(F)cc12 [Compound 43, 1-((R)-1,1-dioxidotetrahydro-2H-thiopyran-3-yl)-3-((S)-1-(5-fluoro-3-methylbenzofuran-2-yl)-2-methylpropyl)urea] | –
1000 to 5000 | 250 to 500 | Cc1c([C@@H](NC(=O)N[C@H]2CCCS(=O)(=O)C2)C(C)C)oc2ccc(F)cc12 [Compound 44, 1-((S)-1,1-dioxidotetrahydro-2H-thiopyran-3-yl)-3-((S)-1-(5-fluoro-3-methylbenzofuran-2-yl)-2-methylpropyl)urea] | –
1000 to 5000 | 100 to 250 | Cc1c([C@@H](NC(=O)Nc2cncc(C(N)=O)c2)C2CC2)oc2ccc(F)cc12 [Compound 45, (S)-5-(3-(cyclopropyl(5-fluoro-3-methylbenzofuran-2-yl)methyl)ureido)nicotinamide] | –
1000 to 5000 | 100 to 250 | Cc1c([C@@H](NC(=O)Nc2cn[nH]c2)C(C)C)oc2ccc(F)cc12 [Compound 47, (S)-1-(1-(5-fluoro-3-methylbenzofuran-2-yl)-2-methylpropyl)-3-(1H-pyrazol-4-yl)urea] | –
1000 to 5000 | 100 to 250 | Cc1c([C@@H](NC(=O)Nc2ccc(S(N)(=O)=O)nc2)C2CC2)oc2ccc(F)cc12 [Compound 48, (S)-5-(3-(cyclopropyl(5-fluoro-3-methylbenzofuran-2-yl)methyl)ureido)pyridine-2-sulfonamide] | –
< 1000 | < 100 | Cc1c([C@@H](NC(=O)Nc2cccc(C(N)=O)c2)C(C)C)oc2c(F)cc(F)cc12 [Compound 52, (S)-3-(3-(1-(5,7-difluoro-3-methylbenzofuran-2-yl)-2-methylpropyl)ureido)benzamide] | –
< 1000 | < 100 | Cc1c([C@@H](NC(=O)Nc2cncc(C(=O)N(C)C)c2)C(C)C)oc2ccc(F)cc12 [Compound 56, (S)-5-(3-(1-(5-fluoro-3-methylbenzofuran-2-yl)-2-methylpropyl)ureido)-N,N-dimethylnicotinamide] | –
< 1000 | 100 to 250 | Cc1c([C@@H](NC(=O)Nc2cnc(C(=O)N(C)C)nc2)C(C)C)oc2ccc(F)cc12 [Compound 59, (S)-5-(3-(1-(5-fluoro-3-methylbenzofuran-2-yl)-2-methylpropyl)ureido)-N,N-dimethylpyrimidine-2-carboxamide] | –
1000 to 5000 | 100 to 250 | CNC(=O)c1cncc(NC(=O)N[C@H](c2oc3ccc(F)cc3c2C)C(C)C)c1 [Compound 60, (S)-5-(3-(1-(5-fluoro-3-methylbenzofuran-2-yl)-2-methylpropyl)ureido)-N-methylnicotinamide] | –
1000 to 5000 | 100 to 250 | Cc1c([C@@H](NC(=O)Nc2cncc(C(=O)N3CCNCC3)c2)C(C)C)oc2ccc(F)cc12 [Compound 61, (S)-1-(1-(5-fluoro-3-methylbenzofuran-2-yl)-2-methylpropyl)-3-(5-(piperazine-1-carbonyl)pyridin-3-yl)urea] | –
> 5000 | < 100 | Cc1c([C@@H](NC(=O)Nc2cncc(C(=O)O)c2)C(C)C)oc2ccc(F)cc12 [Compound 62, (S)-5-(3-(1-(5-fluoro-3-methylbenzofuran-2-yl)-2-methylpropyl)ureido)nicotinic acid] | –
< 1000 | < 100 | Cc1c([C@@H](NC(=O)Nc2cncc(C(=O)N3CCC3)c2)C(C)C)oc2ccc(F)cc12 [Compound 63, (S)-1-(5-(azetidine-1-carbonyl)pyridin-3-yl)-3-(1-(5-fluoro-3-methylbenzofuran-2-yl)-2-methylpropyl)urea] | –

SMILES | IC50 [1, 3] [nM] | Kd [2] [nM] | IC50 ([1]; read-out: T47D pAKT IC50, T47D.1 cells, pAKT (S473) HTRF, 1 hour) [nM]
Cc1c([C@@H](C)NC(=O)Nc2ccc(S(N)(=O)=O)cc2)oc2ccc(F)cc12 [Compound 12, (R)-4-(3-(1-(5-fluoro-3-methylbenzofuran-2-yl)ethyl)ureido) benzenesulfonamide] | – | ≥ 500 | 1000 to 5000
